Target: T1, PD-L1 (Homo sapiens, UniProt Q9NZQ7)
T1 construct: expressed in transfected cells; host or cells: PC3 cells (human prostate carcinoma), stably transduced
Experiment: Saturation binding assay on live PC3 PD-L1 overexpressing cells
Method: For assessing the binding affinity of compounds [^64Cu]Cu-1–6, PC3 cells transduced with PD-L1 were used. Dissociation constants in equilibrium (KD) and maximum number of binding sites (Bmax) were determined in a saturation binding assay. The assays were performed with the addition of 2.5% bovine serum albumin (BSA) in the medium to prevent unspecific binding to plastic wells, as reported previously for our first radioligands.[1]
For saturation binding, cells were trypsinized (0.05% Trypsin–EDTA, Gibco, USA), counted, and diluted to ∼160,000 cells/mL. 0.25 mL of the cell solution was then added to each well of a 48-well plate (Falcon Multiwell #353078) and grown for at least 2 days.
To determine the affinity (KD) and the number of binding sites (Bmax) of the herein described PD-L1 small-molecule ligands, saturation binding was performed in at least three independent experiments, as described before.[45] Cells were brought to room temperature followed by cooling on ice (each 15 min). The medium was removed and replaced with 200 μL assay buffer [PBS + 2.5% (w/v) BSA] for total binding (TB) conditions or assay buffer containing 300 μM BMS-1166 (in DMSO, resulting in 0.03% v/v) for the assessment NSB. After 15 min preincubation, 200 μL of each of the eight serial 1:1 dilutions (500 to 3.91 nM) of the respective radioligand was added (in triplicate). Cells were then incubated for 90 min at 4 °C, washed (3 × 1 min), and lysed in 500 μL of 0.1 M NaOH + 1% SDS. Radioactivity of the lysate was measured and decay corrected to a reference time (end of radiolabeling). An additional plate was subjected to the same conditions (preincubation, incubation, and washing) using PBS without BSA for each experiment, and the protein content of these lysates was determined by BCA assay. From CPM measurements, final values (pmol/mg protein) were calculated using the mean protein content and molar activity.
Processed data were then subjected to nonlinear iterative curve fitting (GraphPad Prism 9) to yield Bmax (in pmol/mg protein) and KD (in nM).

T1 sequence (Q9NZQ7 19-290): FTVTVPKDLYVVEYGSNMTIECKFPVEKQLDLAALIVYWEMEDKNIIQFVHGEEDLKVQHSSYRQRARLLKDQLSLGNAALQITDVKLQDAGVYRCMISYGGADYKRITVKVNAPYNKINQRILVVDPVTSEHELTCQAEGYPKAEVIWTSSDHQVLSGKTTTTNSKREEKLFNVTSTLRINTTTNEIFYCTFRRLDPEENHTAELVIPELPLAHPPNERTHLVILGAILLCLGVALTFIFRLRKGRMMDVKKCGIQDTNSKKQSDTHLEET

Compound: Cc1c(COc2cc(OCc3cccc(C#N)c3)c(CN3C[C@H](O)C[C@@H]3C(=O)O)cc2Cl)cccc1-c1ccc2c(c1)OCCO2 [BMS-1166, reference compound]
- binding blocked in the saturation assay: ~80%

Reference: article PMC10726354, “Design, Synthesis, and Biological Evaluation of Small-Molecule-Based Radioligands with Improved Pharmacokinetic Properties for Imaging of Programmed Death Ligand 1” (Journal of Medicinal Chemistry, 2023)
